Data taken from patent publication US20220257698A1, “ANGIOTENSIN TYPE 2 (AT2) RECEPTOR AGONISTS FOR USE IN THE TREATMENT OF CANCER” (LANTHIOPEP B.V., priority 2019, published 2022).

How the values were obtained:
[1] = system: lung carcinoma PDX Lu7433; test: KcAng(1-7) on growth of lung carcinoma PDX Lu7433 in mice; type: in vivo, NMRI nu/nu mice (human PDX)
Experimental: (§1) In vivo studies were conducted at EPO GmbH Berlin. Large studies (FIG. 1A, 2, 3, 4, 5) comprised 3 groups of 10 mice/group and 5 animals as reserve, as outlined in Table 1. Smaller studies (FIG. 1B, 1C, 1D) comprised 2 groups of mice of 3 mice per group. The animals were allocated to the various treatment groups (e.g. 0.2 μg/kg and 30 μg/kg) with a maximum of 10 animals per group. […] The groups received subcutaneous (s.c.) drug injection (for max. 28 days) as outlined in the Table 1.
(§2) NMRI nu/nu mice were used in this study. The animals were female at age of 6 to 8 weeks. The respective PDX tumors were inoculated subcutaneously (s.c.), and the tumors were grown to achieve palpable tumor sizes before start of the respective treatments. The PDX included breast (MaCa4151), colon (Co9689A), head & neck (HN10309), lung (Lu7433) and ovarian (OvCa13329) cancer (Table 2).
(§3) Treatment with KcAng(1-7) was started with palpable tumors after the randomization of animals regarding tumor volume. KcAng(1-7) was applied s.c. by daily injections at […] or 30 μg/kg dose for a maximum of 28 days (or earlier as defined by the humane end point for the study).
(§4) KcAng(1-7) was prepared as follows: The compounds was suspended in sterile PBS resulting in a clear solution. The remains of this formulation were stored at 4° C.
(§5) Tumor growth stimulatory or inhibitory activity of the KcAng(1-7) was evaluated by determination of tumor volumes (TV). During the study, tumor volumes and body weight were measured twice a week, and the ratio of the mean tumor volumes between the compound-treated group and the vehicle-treated group (T/C) was calculated.
(§6) Tumor volume=(tumor width)×(tumor width)×(tumor length)+2
(§7) T/C=T÷C • T: Mean estimated tumor volume of the compound-treated group • C: Mean estimated tumor volume of the vehicle-treated group

[2] = system: OvCa13329 ovarian cancer PDX model; test: KcAng(1-7) on growth of ovarian carcinoma PDX OvCa13329 in mice; type: in vivo, NMRI nu/nu mice (human PDX); settings: for optT/C: day 11 of the treatment
Experimental: as §1, §2, §3, §4, §5, §6, §7

[3] = Gr. B 0.2 μg/kg/d s.c., Day 11 (Meas. 1)
[4] = Gr. B 0.2 μg/kg/d s.c., Day 14 (Meas. 2)
[5] = Gr. B 0.2 μg/kg/d s.c., Day 18 (Meas. 3)
[6] = Gr. B 0.2 μg/kg/d s.c., Day 21 (Meas. 4)
[7] = Gr. B 0.2 μg/kg/d s.c., Day 25 (Meas. 5)
[8] = Gr. B 0.2 μg/kg/d s.c., Day 28 (Meas. 6)
[9] = Gr. C 30 μg/kg/d s.c., Day 11 (Meas. 1)
[10] = Gr. C 30 μg/kg/d s.c., Day 14 (Meas. 2)
[11] = Gr. C 30 μg/kg/d s.c., Day 18 (Meas. 3)
[12] = Gr. C 30 μg/kg/d s.c., Day 21 (Meas. 4)
[13] = Gr. C 30 μg/kg/d s.c., Day 25 (Meas. 5)
[14] = Gr. C 30 μg/kg/d s.c., Day 28 (Meas. 6)
[15] = Gr. B 0.2 μg/kg/d s.c., Day 7 (Meas. 1)
[16] = Gr. B 0.2 μg/kg/d s.c., Day 11 (Meas. 2)
[17] = Gr. B 0.2 μg/kg/d s.c., Day 14 (Meas. 3)
[18] = Gr. B 0.2 μg/kg/d s.c., Day 18 (Meas. 4)
[19] = Gr. B 0.2 μg/kg/d s.c., Day 21 (Meas. 5)
[20] = Gr. C 30 μg/kg/d s.c., Day 7 (Meas. 1)
[21] = Gr. C 30 μg/kg/d s.c., Day 11 (Meas. 2)
[22] = Gr. C 30 μg/kg/d s.c., Day 14 (Meas. 3)
[23] = Gr. C 30 μg/kg/d s.c., Day 18 (Meas. 4)
[24] = Gr. C 30 μg/kg/d s.c., Day 21 (Meas. 5)

Substance: Lys-Asp-Arg-Val-Abu/Ala-Ile-His-Abu/Ala (KDRVAIHA; not fully specified; cyclic thioether (Abu/Ala bridge); VARIANT (5)..(5) /replace=“Abu”; VARIANT (8)..(8) /replace=“Abu”; SITE (1)..(8) /note=“Variant residues given in the sequence have no preference with respect to those in the annotations for variant positions”) [KcAng(1-7)]
- optT/C ([1]; 0.2 μg/kg): 68.2%
- optT/C ([1]; 30 μg/kg): 71.9%
- effect on tumor growth ([1]; 0.2 and 30 μg/kg, 19 days): moderate but significant decrease in tumor growth
- RTV Mean [1, 3]: 1
- RTV Median [1, 3]: 1
- T/C [1, 3]: 100.1%
- Tumor Vol. Mean [1, 3]: 0.112 cm^3
- Tumor Vol. Median [1, 3]: 0.109 cm^3
- RTV Mean [1, 4]: 1.7
- RTV Median [1, 4]: 1.8
- T/C [1, 4]: 88.4%
- Tumor Vol. Mean [1, 4]: 0.187 cm^3
- Tumor Vol. Median [1, 4]: 0.19 cm^3
- RTV Mean [1, 5]: 3.3
- RTV Median [1, 5]: 3.4
- T/C [1, 5]: 75.1%
- Tumor Vol. Mean [1, 5]: 0.373 cm^3
- Tumor Vol. Median [1, 5]: 0.412 cm^3
- RTV Mean [1, 6]: 4.2
- RTV Median [1, 6]: 4.3
- T/C [1, 6]: 75.3%
- Tumor Vol. Mean [1, 6]: 0.473 cm^3
- Tumor Vol. Median [1, 6]: 0.454 cm^3
- RTV Mean [1, 7]: 5.7
- RTV Median [1, 7]: 5.6
- T/C [1, 7]: 71%
- Tumor Vol. Mean [1, 7]: 0.643 cm^3
- Tumor Vol. Median [1, 7]: 0.625 cm^3
- RTV Mean [1, 8]: 7.6
- RTV Median [1, 8]: 8.1
- T/C [1, 8]: 68.2%
- Tumor Vol. Mean [1, 8]: 0.844 cm^3
- Tumor Vol. Median [1, 8]: 0.808 cm^3
- RTV Mean [1, 9]: 1
- RTV Median [1, 9]: 1
- T/C [1, 9]: 99.7%
- Tumor Vol. Mean [1, 9]: 0.112 cm^3
- Tumor Vol. Median [1, 9]: 0.099 cm^3
- RTV Mean [1, 10]: 1.6
- RTV Median [1, 10]: 1.6
- T/C [1, 10]: 85.1%
- Tumor Vol. Mean [1, 10]: 0.18 cm^3
- Tumor Vol. Median [1, 10]: 0.168 cm^3
- RTV Mean [1, 11]: 3.2
- RTV Median [1, 11]: 3.1
- T/C [1, 11]: 71.9%
- Tumor Vol. Mean [1, 11]: 0.357 cm^3
- Tumor Vol. Median [1, 11]: 0.376 cm^3
- RTV Mean [1, 12]: 4.3
- RTV Median [1, 12]: 4.1
- T/C [1, 12]: 75.1%
- Tumor Vol. Mean [1, 12]: 0.472 cm^3
- Tumor Vol. Median [1, 12]: 0.509 cm^3
- RTV Mean [1, 13]: 6.1
- RTV Median [1, 13]: 5.9
- T/C [1, 13]: 75.3%
- Tumor Vol. Mean [1, 13]: 0.682 cm^3
- Tumor Vol. Median [1, 13]: 0.719 cm^3
- RTV Mean [1, 14]: 8.2
- RTV Median [1, 14]: 8.2
- T/C [1, 14]: 73.7%
- Tumor Vol. Mean [1, 14]: 0.912 cm^3
- Tumor Vol. Median [1, 14]: 0.991 cm^3
- optT/C ([2]; 0.2 μg/kg): 55.8%
- optT/C ([2]; 30 μg/kg): 51%
- effect on tumor volume ([2]; 0.2 and 30 μg/kg, 15 days): significant reduction in tumor volume
- RTV Mean [2, 15]: 1
- RTV Median [2, 15]: 1
- T/C [2, 15]: 102.4%
- Tumor Vol. Mean [2, 15]: 0.122 cm^3
- Tumor Vol. Median [2, 15]: 0.123 cm^3
- RTV Mean [2, 16]: 1.6
- RTV Median [2, 16]: 1.5
- T/C [2, 16]: 55.8%
- Tumor Vol. Mean [2, 16]: 0.192 cm^3
- Tumor Vol. Median [2, 16]: 0.181 cm^3
- RTV Mean [2, 17]: 3.1
- RTV Median [2, 17]: 3
- T/C [2, 17]: 68.5%
- Tumor Vol. Mean [2, 17]: 0.384 cm^3
- Tumor Vol. Median [2, 17]: 0.337 cm^3
- RTV Mean [2, 18]: 8.5
- RTV Median [2, 18]: 8
- T/C [2, 18]: 73.9%
- Tumor Vol. Mean [2, 18]: 0.985 cm^3
- Tumor Vol. Median [2, 18]: 1.015 cm^3
- RTV Mean [2, 19]: 13.4
- RTV Median [2, 19]: 11.9
- T/C [2, 19]: 79.3%
- Tumor Vol. Mean [2, 19]: 1.547 cm^3
- Tumor Vol. Median [2, 19]: 1.398 cm^3
- RTV Mean [2, 20]: 1
- RTV Median [2, 20]: 1
- T/C [2, 20]: 97%
- Tumor Vol. Mean [2, 20]: 0.116 cm^3
- Tumor Vol. Median [2, 20]: 0.115 cm^3
- RTV Mean [2, 21]: 1.6
- RTV Median [2, 21]: 1.6
- T/C [2, 21]: 51.1%
- Tumor Vol. Mean [2, 21]: 0.176 cm^3
- Tumor Vol. Median [2, 21]: 0.182 cm^3
- RTV Mean [2, 22]: 2.6
- RTV Median [2, 22]: 2.7
- T/C [2, 22]: 54.9%
- Tumor Vol. Mean [2, 22]: 0.308 cm^3
- Tumor Vol. Median [2, 22]: 0.33 cm^3
- RTV Mean [2, 23]: 8.4
- RTV Median [2, 23]: 8.4
- T/C [2, 23]: 72.2%
- Tumor Vol. Mean [2, 23]: 0.962 cm^3
- Tumor Vol. Median [2, 23]: 0.995 cm^3
- RTV Mean [2, 24]: 12.6
- RTV Median [2, 24]: 13
- T/C [2, 24]: 73.9%
- Tumor Vol. Mean [2, 24]: 1.442 cm^3
- Tumor Vol. Median [2, 24]: 1.503 cm^3
